Assay results as given in US20070203141A1 (BOEHRINGER INGELHEIM PHARMACEUTICALS, INC., priority 2001, published 2007).
“And” between values parts separate entries of the source, which are not always exact repeats. Equal entries are not always repeated.

How the values were obtained:
[1] = Phase 1 single dose trial, pharmacokinetics; type: in vivo; settings: human, 4 mg single dose
Procedure: (§1) Thus, 4 mg would be efficacious in inhibiting TNFα production.

[2] = test system: TNFα production; assay: Cynomolgus monkey endotoxin model, duration of action, PO chewable tablets 12 hours prior to LPS; type: in vivo; settings: for Inhibition of TNFα production: vs placebo; for Peak plasma level: cynomolgus monkey
From the text: (§2) As a surrogate model for man, we developed an endotoxin model in the cynomolgus monkey to examine the effect of p38 MAPK inhibitors on modulating TNFα production.

[3] = Once daily for 7 days multiple dose study, safety and tolerability; type: in vivo, human
Procedure: Transaminase levels peaked 2 to 4 days after the end of drug therapy on day 7 with resolution over the next 7 to 14 days.
(§3) This was a randomized, double-blind, placebo-controlled (2:6 ratio per dose group), multiple dose (20, 50 and 150 mg) study to assess pharmacokinetics, pharmacodynamics, safety and tolerability using a tablet formulation administered once a day for one week. Safety was determined by adverse events, laboratory tests, and physical examination. Kinetics were assessed by measuring plasma levels of drug and pharmacodynamics was assessed ex vivo by the effects of LPS induced production of TNFα, and the TNFα or fMLP induced activation state of PMN in human whole blood as measured by the ratio of Mac-1/Lselectin cell surface expression. Twenty-four healthy male volunteers (mean age 30 years, mean weight 76 kg) were studied. […] Two subjects receiving the 150 mg dose developed acne. There were no clinically significant changes in laboratory assessments except for a dose related, reversible rise in AST and ALT. […] This transaminase increase was not associated with changes in other liver function tests, nor was it associated with any liver related signs or symptoms. […] Steady-state was attained within 2 days.

[4] = test system: TNFα release from LPS stimulated human PBMC; assay: TNFα release from LPS stimulated human PBMC; type: cell-based
[5] = test system: TNFα production; assay: Human endotoxemia trial, LPS-induced TNFα production; type: in vivo; settings: for Inhibition of LPS-induced TNFα production: human, vs placebo
From the text: Intravenous administration of endotoxin represents a safe, well-defined model of acute inflammation in humans. It is also an excellent tool to study the mechanisms contributing to inflammatory responses in man in vivo.
The endotoxin (LPS) was obtained from: Escherichia coli LPS (lot G; United States Pharmacopoeial Convention, Rockville, Md. USA).
Percent inhibition was obtained by calculating the percent difference between the median peak plasma pharmacodynamic endpoint concentrations of the placebo group and the maximum endpoint concentration achieved by each individual. […] [formula]

[6] = test system: TNFα production; assay: Mouse model of LPS-induced TNFα production; type: in vivo; settings: dosed orally 30 minutes prior to LPS challenge
[7] = Once daily for 7 days multiple dose study, pharmacokinetics; type: in vivo; settings: human
Procedure: as §3

[8] = Twice daily for 14 days Phase I study, safety; type: in vivo, human; settings: for Subjects with transaminase values above the upper limit of normal: preliminary analysis, placebo 2
Procedure: (§4) This study was a Phase I, randomized, double-blind, placebo-controlled, multiple-dose trial to investigate the safety and pharmacokinetics of 15 or 30 mg of an orally available p38MAPK inhibitor administered twice daily compared to placebo for 14 days. Subjects were 49 healthy males, 16 per treatment group (one subject on placebo was discontinued). […] Based on preliminary analysis of this study, 9 of 48 subjects had transaminase values above the upper limit of normal (UNL), 2 in the placebo, 3 in the 15 mg dose group and 4 in 30 mg dose group. Three subjects experienced ALT rises 2-3 fold greater than UNL, one in each dose group. […] There were no relevant changes in other laboratory studies, EKGs or physical examinations.

[9] = Twice daily for 14 days Phase I study, pharmacokinetics; type: in vivo; settings: human
Procedure: as §4

[10] = test system: TNFα; assay: Single dose rising trial (U00-1627), ex vivo TNFα inhibition; type: in vivo, human; settings: single dose rising trial U00-1627
Procedure: as §1
This discrepancy between in vivo and ex vivo and in vivo and in vitro was also observed in cynomolgus monkeys (U99-3145).

[11] = test system: plasma TNFα production; assay: Cynomolgus monkey endotoxin model, IV dosing just prior to LPS challenge; type: in vivo; settings: vs vehicle
From the text: as §2

[12] = test system: TNFα; assay: Once daily for 7 days study, ex vivo LPS induced production of TNFα in human whole blood; settings: any of the doses used (20, 50, 150 mg once daily for 7 days)
Procedure: as §3

[13] = test system: PMN (neutrophil) activation in human whole blood; assay: Once daily for 7 days study, ex vivo TNFα or fMLP induced activation state of PMN (Mac-1/Lselectin ratio); type: in vivo
Procedure: as §3

[14] = test system: TNFα release, human whole blood; assay: TNFα release from LPS stimulated human whole blood; type: cell-based
[15] = test system: TNFα release, monkey whole blood; assay: TNFα release from LPS stimulated monkey whole blood; type: cell-based
From the text: as §2

[16] = 150 mg once daily for 7 days, all 6 subjects

Cmax [1]: 23.8 ± 5.71 ng/mL | Day 7 mean AUC0-24 ([7]; 20 mg once daily): 364 ng·h/mL | Day 7 mean Cmax ([7]; 20 mg once daily): 116 ng/mL | Day 7 mean AUC0-24 ([7]; 50 mg once daily): 1324 ng·h/mL | Day 7 mean Cmax ([7]; 50 mg once daily): 308 ng/mL | Day 7 mean AUC0-24 ([7]; 150 mg once daily): 5924 ng·h/mL | Day 7 mean Cmax ([7]; 150 mg once daily): 1108 ng/mL | Time to steady-state ([7]; once daily dosing): ≤ 2 days | AUC0-12 (mean±SD) on day 14 ([9]; 15 mg twice daily): 334 ± 145 ng·h/mL | Cmax (mean±SD) on day 14 ([9]; 15 mg twice daily): 109 ± 51 ng/mL | AUC0-12 (mean±SD) on day 14 ([9]; 30 mg twice daily): 659 ± 449 ng·h/mL | Cmax (mean±SD) on day 14 ([9]; 30 mg twice daily): 208 ± 109 ng/mL | Mean elimination half-life ([9]; 15 or 30 mg twice daily for 14 days): 7.3 h | EC50 calculated from ex-vivo inhibition of TNFα [10]: 1228 ng/mL | IC50 [14]: 800 nM | IC50 [15]: 4 µM
SMILES: Cc1ccc(-n2nc(C(C)(C)C)cc2NC(=O)Nc2ccc(OCCN3CCOCC3)c3ccccc23)cc1 [BIRB 796 BS]
Inhibition of TNFα production ([2]; 1 mg/kg PO 12 hours prior to IV LPS, NS): 44% | Inhibition of TNFα production ([2]; 3 mg/kg PO 12 hours prior to IV LPS, p<0.05): 61% | Inhibition of TNFα production ([2]; 20 mg/kg PO 12 hours prior to IV LPS, p<0.01): 84% | Peak plasma level ([2]; 1 mg/kg PO chewable tablets): 0.003 µM | Peak plasma level ([2]; 3 mg/kg PO chewable tablets): 0.02 µM | Peak plasma level ([2]; 20 mg/kg PO chewable tablets): 1.4 µM | Change in γ-GT ([3]; 150 mg daily for seven days): small increase in γ-GT | Elevations in AST and ALT ([3]; 150 mg daily for seven days): moderate elevations in AST and ALT | Tolerability ([3]; 150 mg for seven days): not considered well tolerated | Rise in ALT above the upper limit of normal [3, 16]: ≤ 3.5 fold | Rise in AST above the upper limit of normal [3, 16]: ≤ 2 fold | Tolerability ([3]; doses up to 50 mg (20 and 50 mg) daily for 7 days): well tolerated | IC50 [4]: 21 nM | EC50 for inhibiting TNFα production in vivo ([5]; Emax model, plasma concentration ten minutes prior to LPS challenge): 23.72 ng/mL | Emax (% Inhibition), TNFα ([5]; Emax model, pre-LPS challenge plasma concentration vs percent inhibition of peak TNFα): 95% and 95.34% | Inhibition of LPS-induced TNFα production ([5]; 50 mg orally 3 hours prior to LPS challenge): 88% | Inhibition of LPS-induced TNFα production ([5]; 600 mg orally 3 hours prior to LPS challenge): 97% | ED50, inhibition of LPS-induced TNFα [6]: approximately 10 mg/kg | Subjects with transaminase values above the upper limit of normal ([8]; 15 mg twice daily group (16 per group)): 3 subjects | Subjects with transaminase values above the upper limit of normal ([8]; 30 mg twice daily group (16 per group)): 4 subjects | Tolerability ([8]; doses up to 30 mg twice daily for two weeks): well tolerated | Ex vivo inhibition of TNFα production ([10]; 50 mg): no inhibition was observed | Inhibition of plasma TNFα production ([11]; 0.3 mg/kg IV just prior to LPS 400 ng/kg IV): not significantly inhibited | Inhibition of plasma TNFα production ([11]; 1 mg/kg IV just prior to LPS 400 ng/kg IV, p<0.005): 85% | Inhibition of plasma TNFα production ([11]; 3 mg/kg IV just prior to LPS 400 ng/kg IV, p<0.005): 90% | Ex vivo inhibition of TNFα [12]: No inhibition | Ex vivo neutrophil activation ([13]; 4 hours post dosing): dose dependent inhibition | Ex vivo neutrophil activation ([13]; 24 hours post dosing, various dose levels): mixed pattern of neutrophil inhibition and activation
